Data set [1] relates to SUM-149 cells. Briefly: Cell viability assay, SUM-149. The class given is cell-based, human. The following applies: for pEC50: Homo sapiens, read-out: EC50, SUM-149 cell viability. How it is done: Either 1 × 10^3–4.8 × 10^3 or 4 × 10^2–1.2 × 10^3 cells were seeded to each well of 96- or 384-well white polystyrene flat-bottomed plates (3610 or 8804BC, Corning) in 100 μL or 30 μL media per well, respectively. The concentrations used were experimentally determined to ensure logarithmic growth during the duration of the experiment and prevent adverse effects on cell growth by DMSO exposure. The plates were incubated at 37°C in 5% CO2 for 24 h before treatment. Stock solutions of test compounds (10 mM in DMSO) in nine 3-fold serial dilutions were dispensed via pintool (Biomek). The final concentration of DMSO was 0.3% (v/v) in each well. The plates were incubated for 72 h at 37°C in 5% CO2 and then quenched with CellTiter-Glo® reagent (50 μL/well in 96-well plate, 30 μL/well in 384-well plate) at RT. The positive controls included staurosporine (10 μM), gambogic acid (10 μM), and a toxic quinoline generated in-house. Plates were then incubated at RT for 20 min and centrifuged at 1000 rpm for 1 min. The cytotoxicity assay was performed by using the CellTiter-Glo® Luminescent Cell Viability Assay kit (G7570, Promega, Madison, WI, United States) according to the manufacturer’s instructions. Luminescence was recorded in an Envision plate reader (PerkinElmer).
Cell viability assays (MTT or PI staining assays) in SUM-149, SUM-190, MDA-MB-231, and MCF10A cells were performed as we previously described ([Suarez-Arroyo et al., 2016]).
(§1) For the CTG assay, 3 or 4 replicate assays were conducted for each experimental condition, and a minimum of 3 independent experiments were conducted for cellular assays. The mean luminescence of each experimental treatment group was normalized as a percentage of the mean intensity of untreated controls. EC50 values (μM) were calculated by Pipeline Pilot Software (Accelrys, Enterprise Platform, San Diego, CA, United States). EC50 values (μM) from the viability assay were calculated from dose response curve-fitting via non-linear regression by using GraphPad Prism (Version 7.0, San Diego, CA, United States). For cell viability, colony formation, cell-cycle progression, cell death, and western blot assays, the analyses were performed via one-way or two-way ANOVA with post-testing for each condition (concentration, cell cycle stage, apoptotic event, cell line) by using GraphPad Prism.

Data set [2] relates to BCR-ABL cells. Briefly: Cell Titer Glo viability assay, BCR-ABL. The class given is cell-based, murine. The following applies: Mus musculus, 72-h treatment. How it is done:
(§2) Either 1 × 10^3–4.8 × 10^3 or 4 × 10^2–1.2 × 10^3 cells were seeded to each well of 96- or 384-well white polystyrene flat-bottomed plates (3610 or 8804BC, Corning) in 100 μL or 30 μL media per well, respectively. The concentrations used were experimentally determined to ensure logarithmic growth during the duration of the experiment and prevent adverse effects on cell growth by DMSO exposure. The plates were incubated at 37°C in 5% CO2 for 24 h before treatment. Stock solutions of test compounds (10 mM in DMSO) in nine 3-fold serial dilutions were dispensed via pintool (Biomek). The final concentration of DMSO was 0.3% (v/v) in each well. […] Luminescence was recorded in an Envision plate reader (PerkinElmer).
as §1, with “For cell viability, colony formation, cell-cycle progression, cell death, and western blot assays, the analyses were performed via one-way or two-way ANOVA with post-testing for each condition (concentration, cell cycle stage, apoptotic event, cell line) by using GraphPad Prism.” left out
For orientation: Cellular ATP, detected with luciferase, serves as a proxy for viable cell number.

For data set [3], the system named is KOPN-8 cells. Briefly: Cell Titer Glo viability assay, KOPN-8. The data set is classed as cell-based. The note with it: Homo sapiens, 72-h treatment. As for the experimental part:
as §2
as §1, with “For cell viability, colony formation, cell-cycle progression, cell death, and western blot assays, the analyses were performed via one-way or two-way ANOVA with post-testing for each condition (concentration, cell cycle stage, apoptotic event, cell line) by using GraphPad Prism.” left out

For data set [4], the system named is Sup-B15 cells. Briefly: Cell Titer Glo viability assay, Sup-B15. The class given is cell-based. The note with it: Homo sapiens, 72-h treatment. How it is done: as §2
as §1, with “For cell viability, colony formation, cell-cycle progression, cell death, and western blot assays, the analyses were performed via one-way or two-way ANOVA with post-testing for each condition (concentration, cell cycle stage, apoptotic event, cell line) by using GraphPad Prism.” left out

Data set [5] deals with MDA-MB-231 cells. Description: ROS measurement (CellROX green), MDA-MB-231. The class given is cell-based, human. The note with it: EP 20 μM, 1 h. As for the experimental part:
SUM-149 or MDA-MB-231 were plated in 96-well plates at a density of 2 × 10^4 and 1 × 10^4 cells/well, respectively, in black 96-well clear bottom tissue culture plates and incubated for 24 h at 37°C. The mRuby-Mito-7 plasmid was obtained from Addgene (#55874 from Michael Davidson). A stable clone of MCF-7 was generated by using Fugene 6 (Roche) to transfect cells (2 × 10^5) with plasmid (2.0 μg) under neomycin selection. A stable cell line was selected by using G418 (300 μg/mL) for 2 weeks, sorted by flow cytometry, and maintained under G418 thereafter. Transfected MCF-7 cells were plated at a density of 2 × 10^4 cells/well in black 96-well clear bottom tissue culture plates and incubated overnight at 37°C. To test for ROS formation and remove background, cells were replenished with fresh PBS with 2% FBS and treated with the desired compounds for 1 h at 37°C. DMSO (0.5%) was used as a negative control, while Menadione (Mena, at 10 μM) or t-Butyl hydroperoxide (TBHP) at 100 μM final concentration were used as a positive control. To evaluate the compounds’ effects on ROS formation inhibition, the free radical scavenger N-acetyl cysteine (NAC) was used. […] Fluorescence intensity was measured in a Clariostar® plate reader (BMG LABTECH, Cary, NC, United States) at 535 nm.

The subject of data set [6] is SUM-149 cells. Briefly: ROS measurement (CellROX green), SUM-149. The note with it: EP 20 μM. The data set is classed as cell-based, human. How it is done:
SUM-149 or MDA-MB-231 were plated in 96-well plates at a density of 2 × 10^4 and 1 × 10^4 cells/well, respectively, in black 96-well clear bottom tissue culture plates and incubated for 24 h at 37°C. The mRuby-Mito-7 plasmid was obtained from Addgene (#55874 from Michael Davidson). A stable clone of MCF-7 was generated by using Fugene 6 (Roche) to transfect cells (2 × 10^5) with plasmid (2.0 μg) under neomycin selection. A stable cell line was selected by using G418 (300 μg/mL) for 2 weeks, sorted by flow cytometry, and maintained under G418 thereafter. Transfected MCF-7 cells were plated at a density of 2 × 10^4 cells/well in black 96-well clear bottom tissue culture plates and incubated overnight at 37°C. To test for ROS formation and remove background, cells were replenished with fresh PBS with 2% FBS and treated with the desired compounds for 1 h at 37°C. DMSO (0.5%) was used as a negative control, while Menadione (Mena, at 10 μM) or t-Butyl hydroperoxide (TBHP) at 100 μM final concentration were used as a positive control. To evaluate the compounds’ effects on ROS formation inhibition, the free radical scavenger N-acetyl cysteine (NAC) was used. Cells were treated with or without NAC (500 μM or 100 μM) for 1 h, then CellROX® green reagent (Molecular Probes #C10444) was added to a final concentration of 5 μM, and cells were incubated for an additional 30 min at 37°C. Cells were then washed 2× with PBS, followed by fixation with 4% paraformaldehyde (v/v) for 15 min, and 2 more washes with PBS. Fluorescence intensity was measured in a Clariostar® plate reader (BMG LABTECH, Cary, NC, United States) at 535 nm.

Data set [7] has as its system SUM-149 cells. Briefly: Cell migration assay (Boyden chamber). The data set is classed as cell-based, human. The following applies: 10 μM, 72 h. As for the experimental part:
Cell migration and invasion were measured by using Corning® FluoroBlok^TM Cell Culture Inserts and performing BD BioCoat Matrigel invasion assays (BD Biosciences, San José, CA, United States) as described in [Martinez-Montemayor et al. (2011)] and [Suarez-Arroyo et al. (2016)].

The nature of data set [8]: Solubility in DMSO or water. The following applies: unless warmed up to 30°C.

pEC50: −log10 of the molar value. Like-named read-outs stand apart in the source and are kept apart here.

The term pEC50 denotes the EC50 on a negative log10 scale, so that one unit is a factor of ten. As for `CC(C)[C@@H](C)/C=C/[C@@H](C)[C@H]1CC[C@@H]2[C@]1(C)CC[C@H]1[C@]23C=C[C@]2(C[C@@H](O)CC[C@]12C)OO3` [EP, ergosterol peroxide], the “concentration at which SUM-149 cell viability is significantly reduced” value in data set [1] (72 h) is 8 µM. The pEC50 is 4.47 in data set [1] (SUM149, 24 h); 4.70 in data set [1] (SUM149, 72 h); 5.16 in data set [2]; 4.65 in data set [3]; 5.01 in data set [4]. In addition, the “ROS formation (fold)” value in data set [5] is on record as “twofold”; in data set [6] (1 h), “fourfold”. The “reduction in ROS formation in the presence of NAC” value in data set [6] (NAC 500 μM, menadione 10 μM) is “about 20%”. In addition, the cancer cell migration entry in data set [7] is “decreases cancer cell migration”. Besides, the “solubility properties in DMSO or water” value in data set [8] was “poor”.

The values are drawn from PMC6389703, “Identification of Biologically Active Ganoderma lucidum Compounds and Synthesis of Improved Derivatives That Confer Anti-cancer Activities in vitro” (Frontiers in Pharmacology, 2019).
